We go through 4 compounds from patent US12274681B2, “Compositions and methods for reducing skin fat” (Purdue Research Foundation, priority 2016, dated 2025).

Usually IC50 stands for the concentration needed to halve the response being measured.

Bounds are passed on as bounds.

Data set [1] has as its system high fat diet-fed C57BL/6J obese and diabetic mice. Kind of data set: High fat diet-induced obese and diabetic mouse model. The conditions noted are these: for anti-diabetes treatment / anti-obesity treatment in a mouse model of obesity: summary statement. Format: in vivo.
Data set [2] addresses ACAT2 (Homo sapiens, UniProt O75908). To be noted: cited from earlier work.
For data set [3], the system named is murine 3T3-L1 preadipocytes. The experiment in a line: Lipid accumulation in differentiating adipocytes, Oil Red O staining and spectrometric quantification. Format: cell-based. The protocol: Avasimibe solution was prepared by dissolving in dimethyl sulfoxide (DMSO). At day 6, preadipocytes and avasimibe-treated differentiated adipocytes were subjected to Oil Red 0 staining to visualize accumulated intracellular lipids. Oil Red 0 stained lipids were then extracted for spectrometric quantification of lipids. Intracellular lipids were decreased in a dose-dependent manner by up to 60% (FIG. 3A and FIG. 3B).

Data set [4] has as its system ACAT2. The experiment in a line: ACAT2 knockdown in adipocytes (Oil Red O, real-time PCR). Format: cell-based, mouse. On the technique in general: In qPCR the cycle at which signal appears reflects the starting amount.
In data set [5] the target is T1, ACAT1 (Homo sapiens, UniProt P35610).
T1 sequence (P35610 1-550): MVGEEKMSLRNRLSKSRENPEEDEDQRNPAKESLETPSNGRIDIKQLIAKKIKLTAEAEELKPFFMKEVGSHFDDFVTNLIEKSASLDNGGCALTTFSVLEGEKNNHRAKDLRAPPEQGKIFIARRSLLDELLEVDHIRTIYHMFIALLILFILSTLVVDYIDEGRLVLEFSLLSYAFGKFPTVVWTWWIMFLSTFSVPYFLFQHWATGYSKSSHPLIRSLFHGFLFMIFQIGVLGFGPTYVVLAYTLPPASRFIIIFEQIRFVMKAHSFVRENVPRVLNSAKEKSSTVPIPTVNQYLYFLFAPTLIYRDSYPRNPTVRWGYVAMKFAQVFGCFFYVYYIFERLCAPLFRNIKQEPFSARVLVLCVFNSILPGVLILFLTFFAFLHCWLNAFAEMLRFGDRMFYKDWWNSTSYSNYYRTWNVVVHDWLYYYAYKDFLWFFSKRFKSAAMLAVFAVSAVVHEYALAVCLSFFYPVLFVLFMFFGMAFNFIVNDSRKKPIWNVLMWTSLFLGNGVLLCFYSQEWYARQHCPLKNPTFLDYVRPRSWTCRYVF
To be noted: cited from earlier work.

A further data set deals with SREBP1. The experiment in a line: Western blot of SREBP1 in adipocytes. Format: cell-based. The protocol: Because SREBP1 plays a key role in de novo fatty acids and TG synthesis and the data in FIG. 6 show a potential inhibitory role of avasimibe in suppression of SREBP1-downstream genes involved in fatty acid and TG synthesis, the ability of avasimibe treatment to alter SREBP1 protein expression and de novo fatty acid synthesis in adipocytes was tested.
In general terms: A western blot detects proteins with antibodies after separation by electrophoresis.

In data set [6] the test system is high-fat diet-induced obesity mouse model. The experiment in a line: Pair-feeding study in high-fat diet-induced obesity mouse model. Format: in vivo, mice. The text has this:
To do this, mice were pair-fed with the amount of food consumed by avasimibe-administrated mice for 8 days.

The conditions of data set [7]: cited from earlier work.
The subject of a further data set is ACAT. Kind of data set: 25-NBD cholesterol-based ACAT assay in adipocytes. Format: cell-based. The text has this: (§1) Previous studies reported an adipogenesis-dependent increase in cholesterol accumulation in adipocytes. Similarly, adipogenesis was associated with elevated level free cholesterol with little change in CE level.
The subject of another data set is mature adipocytes. The experiment in a line: Lipid accumulation by Coherent Anti-Stokes Raman Scattering (CARS) microscopy. Format: cell-based, murine.
A further data set concerns cytochrome P450 (CYP450). The conditions noted are these: Sahi, et al. 2004; cited from earlier work.
The test system of the next data set is 3T3-L1 adipocytes. The experiment in a line: Proteomic analysis of adipocytes by LC MS/MS. Format: cell-based, Mus musculus. To be noted: 10 μM. On the procedure:
3T3-L1 preadipocytes were induced to differentiate into mature adipocytes with the same culture condition as described elsewhere. […] Avasimibe or DMSO was replaced freshly every 48 h. Each condition was cultured in triplicate. On day 6, adipocytes were washed with 1×PBS and scraped off the culture dishes. Adipocyte cell pellets were collected after centrifugation and subsequently digested with trypsin (Sigma-Aldrich, St. Louis MO, USA) at the Ratio of 1:50 (μg/μg) Trypsin to Protein. The tryptic peptides after trypsin digestion were separated on a nano LC system (1100 Series LC, Agilent Technologies, Santa Clara, CA) as described previously (D'Aquila, et al. 2015). Briefly, peptides were concentrated with Agilent 300SB-C18 enrichment column and separated with C18 reversed phase ZORBAX 300SB-C18 column. High resolution hybrid ion trap mass spectrometer LTQ-Orbitrap LX (Thermo Fisher Scientific, Waltham MA, USA) was employed to identify the peptides in the data-dependent positive acquisition mode. These experiments were done in Bindley Bioscience Center. We used the MaxQuant computational proteomics platform version 1.5.3.17 (Cox and Mann, 2008) to analyze the results from LC MS/MS analysis. The Mus musculus (24754 entries) sequence from UNIPROT retrieved on Sep. 1, 2015 and a common contaminants database were used as our reference databases. MaxQuant was set with parameters as follows: minimum peptides length was set to seven amino acids, and “Match between runs” interval was set to one minute; The FASTA databases were randomized and 1% of protein false discovery rate was allowed; With trypsin digestion, two missed cleavages were accepted; Three modifications per peptide were allowed, including one fixed modification as “Iodoethanol” and variable modifications as “Oxidation (M)” and “Acetyl (Protein N-term)”; Initial precursor was set to 0.07 and fragment mass tolerance set to 0.02 Da; Data were analyzed with “Label-free quantification” (LFQ) checked. The MaxQuant results were used in in-house script to remove all the common contaminant proteins and to calculate the average LFQ intensity values for the biological replicates and log transform [log2(x)]. The missing values were left blank unless indicated. A two tailed student t-test was performed on the LFQ intensity.

Data set [8] relates to adipocytes. Kind of data set: Cholesterol and cholesterol ester accumulation in adipocytes during adipogenesis. Format: cell-based.
Source text: as §1

Data set [9] relates to differentiated 3T3-L1 preadipocytes. The experiment in a line: Real-time PCR of lipid synthesis and cholesterol uptake genes in adipocytes. Format: cell-based, murine. The protocol:
To characterize the effect of avasimibe treatment on mRNA levels of genes involved in lipid metabolism and adipocyte function, differentiated 3T3-L1 preadipocytes in the presence or absence of avasimibe (20 μM) for 6 days were subjected to real-time PCR assay for the analysis of expression of genes involved in synthesis of fatty acids and TGs such as PPARγ, sterol regulatory element binding protein 1c (SREBP1c), MGAT1, DGAT2, FAS and SCD-1.
as §1

In data set [10] the test system is adipocytes. Kind of data set: De novo fatty acid synthesis, glucose-d7 with stimulated Raman scattering (SRS) microscopy. Format: cell-based. To be noted: SRS imaging. An excerpt: Using deuterium labeled glucose-d7, the effect of avasimibe on de novo fatty acid synthesis in adipocytes treated with or without avasimibe was examined. Glucose-d7 incorporated fatty acids were visualized by stimulated Raman scattering (SRS) microscopy.

The conditions of data set [11]: mouse, in vivo, ip, 20 mg/kg. The text has this:
Tissue- and isoform-specific regulation of ACATs has been proposed to be therapeutic strategy for cholesterol dysregulated diseases, such as atherosclerosis. However, the therapeutic role of ACATs in obesity has never been explored.

The subject of data set [12] is ACAT1. The experiment in a line: Lentivirus-mediated ACAT1 knockdown in adipocytes (Oil Red O, real-time PCR). Format: cell-based, mouse. The protocol:
The direct role of ACAT1 on synthesis of fatty acids and TGs in adipocytes by lentivirus-mediated ACAT1 knockdown using its specific shRNA was tested.

Setting [13] is: daily i.p. 20 mg/kg, about 2-week.

Chain of ACAT2 (Homo sapiens, UniProt O75908) (O75908 whole entry): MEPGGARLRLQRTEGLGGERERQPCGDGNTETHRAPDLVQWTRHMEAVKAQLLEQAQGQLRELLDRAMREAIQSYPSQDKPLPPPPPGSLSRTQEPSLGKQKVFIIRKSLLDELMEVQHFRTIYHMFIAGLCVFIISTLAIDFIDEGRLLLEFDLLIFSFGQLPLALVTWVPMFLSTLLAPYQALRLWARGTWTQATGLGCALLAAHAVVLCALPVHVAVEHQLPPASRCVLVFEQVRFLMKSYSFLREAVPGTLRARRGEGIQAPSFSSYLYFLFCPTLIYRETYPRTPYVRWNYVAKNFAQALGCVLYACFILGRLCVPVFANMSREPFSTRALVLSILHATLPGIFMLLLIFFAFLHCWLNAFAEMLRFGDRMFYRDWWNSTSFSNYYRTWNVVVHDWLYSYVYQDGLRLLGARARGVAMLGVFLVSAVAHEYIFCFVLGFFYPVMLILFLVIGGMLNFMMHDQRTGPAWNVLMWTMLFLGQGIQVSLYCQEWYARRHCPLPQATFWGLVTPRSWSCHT

Take `CCCCCCCCCCC(C)(C)C(=O)Nc1c(OC)cc(OC)cc1OC` [CI-976, 2,2-Dimethyl-N-(2,4,6-trimethoxyphenyl) dodecanamide]: in [1], the anti-diabetes treatment result was “highly effective” and the “anti-obesity treatment in a mouse model of obesity” value is on record as “highly effective”. The IC50 on ACAT2 [2] is less than 1 µM. The “lipid accumulation (Oil Red O)” value in data set [3] (0, 5, 15 and 20 μM for 6 days) was “decrease in lipid accumulation”.
For “ACAT2 shRNA: mouse ACAT2 shRNA sequence (SEQ ID NO:6), ACAT2 knockdown (CCGGUGCGGUGGUUCAUGAGUAUAUCUCGAGAUAUACUCAUGAACCACCGCAUUUUUUG; listed as Mus musculus)”, in the data set on ACAT2 [4], the “mRNA levels of genes involved in TG synthesis” value is “dramatic reduction” and the “suppression of lipid accumulation vs control ShRNA adipocytes (Oil Red O)” value was “up to 55%”.
With `CC(C)c1cc(C(C)C)c(CC(=O)NS(=O)(=O)Oc2c(C(C)C)cccc2C(C)C)c(C(C)C)c1` [avasimibe], at ACAT1 [5], the IC50 is 10 µM. For the same compound, the “level of 125 kDa inactive precursor form of SREBP1” value with SREBP1 is recorded as “elevated levels”. For the same compound, in [6] (8 days), the “blood glucose of pair-fed group relative to avasimibe-treated mice” value is reported as “didn't reach to the level found from avasimibe-treated mice” and the fecal energy content result is “little change”. In addition, in [6] (figure legend FIG. 23C, 23D), the “fecal excretion and fecal energy excretion” value is listed as “suppressed”. Further, the “safety when administered to rats, dogs, and humans” value in data set [7] (in vivo) is given as “generally considered safe”. For the same compound, the hypercholesterolemia result in [7] (oral) was “effectively lowered”. Moreover, in [7] (orally administrated), the “effect on body weight, food intake and insulin resistance” value is listed as “no effect”. In addition, in [1] (2-week administration), the HOMA-IR values entry is “improved”, the blood glucose result was “marked reduction”, the glucose tolerance entry is listed as “improved glucose tolerance” and the insulin levels entry was “marked reduction”. Further, in data set [1] (daily i.p. 20 mg/kg), the “decrease in food intake” value is “approximately 50%” and the energy expenditure entry was “reduced energy expenditure”. Moreover, in [1] (daily i.p. 20 mg/kg body weight, about 2-week), the “reduction or suppression in total body weight gain” value is given as “about 25%”. In [1] (setting [13]), the “white adipose tissue (inguinal, epididymal, retroperitoneal) weight” value is listed as “significant loss” and the “whole body fat mass” value is “significant loss”. Further, in data set [1] (mouse, in vivo), the circulating leptin level entry is given as “markedly suppressed”, the “serum CE” value is on record as “decrease”, the “serum TG” value is reported as “decrease” and the serum free cholesterol result is listed as “decrease”. Besides, in data set [1], the anti-diabetes treatment result was “highly effective” and the “anti-obesity treatment in a mouse model of obesity” value is listed as “highly effective”. In data set [1] (vs control mice), the respiratory exchange ratio entry is “reduced respiratory exchange ratio”. The “ACAT activity (fluorescence-labeled CE accumulation)” value in the data set with ACAT was “inhibited the ACAT activity”. Besides, the “lipid accumulation by CARS microscopy” value in the data set on mature adipocytes is given as “inhibited lipid accumulation was confirmed”. In the data set on cytochrome P450 (CYP450), the “inhibition of cytochrome P450 (CYP450)” value was “known to inhibit”. Moreover, in the data set with 3T3-L1 adipocytes, the “Acyl-CoA dehydrogenase protein level reduction” value is on record as 56%, the “Acyl-CoA synthetase long-chain family member 1 protein level reduction” value amounted to 86%, the FAS protein level result is “only identified in the control group” and the “acetyl-CoA acyltransferase 1 protein level reduction” value is recorded as 61%. In the data set on 3T3-L1 adipocytes, the “adiponectin protein level reduction” value is 84%; the “carnitine O-acetyltransferase protein level” value is “only identified in the control group”; the “cytochrome B5 Reductase 3 and superoxide dismutase 1 protein levels” value was “not altered significantly”; the “cytochrome B5 Type A protein level reduction” value stood at 67%. In the data set with 3T3-L1 adipocytes, the “enoyl CoA hydratase short chain 1 protein level reduction” value was determined as 64%, the “fatty acid binding protein 4 protein level reduction” value is given as 64%, the “hydroxyacyl-CoA dehydrogenase protein level reduction” value worked out at 64% and the “hydroxysteroid (17-13) dehydrogenase 4 protein level reduction” value stood at 38%. Moreover, in the data set on 3T3-L1 adipocytes, the “sterol carrier protein 2 downregulation” value is 36%. In the data set on adipocytes [8], the “CE accumulation in adipocytes” value was “complete inhibition” and the “cholesterol level in adipocytes” value is reported as “significantly reduced level”. The “mRNA levels of genes involved in lipid synthesis (PPARγ, SREBP1c, MGAT1, DGAT2, FAS, SCD-1)” value in data set [9] (20 μM for 6 days) is listed as “marked decrease”. The “mRNA levels of cholesterol uptake genes SR-BI and CD-36” value in data set [9] (vs control adipocytes) is recorded as “marked decrease”. In addition, in the data set with adipocytes [10], the “LD accumulation and glucose-d7 signal in LDs (de novo fatty acid synthesis)” value is “reduced level”. Further, in [11], the “liver toxicity by alanine transaminase (ALT) assay” value is recorded as “no noticeable liver toxicity”. For the same compound, the IC50 at ACAT2 [2] is 2.5 µM. In addition, the “decrease of intracellular lipids (Oil Red O)” value in data set [3] (avasimibe 0, 1, 5, and 20 μM for 6 days, dose-dependent) is “up to 60%”.
Turning to “ACAT1 shRNA: mouse ACAT1 shRNA sequence (SEQ ID NO:5), lentivirus-mediated ACAT1 knockdown (CCGGCCAACCAGAGACUAAACAUAUCUCGAGAUAUGUUUAGUCUCUGGUUGGUUUUUUG; listed as Mus musculus)”, the “suppression of lipid accumulation vs control ShRNA adipocytes (Oil Red O)” value in the data set on ACAT1 [12] (ACAT1 knockdown) is “up to 40%”. In addition, in the data set on ACAT1 [12] (ACAT1 knockdown, real-time PCR), the “mRNA levels of genes involved in lipid synthesis” value is recorded as “marked decrease”. The ACAT2 expression level entry with ACAT1 [12] (ACAT1 shRNA) was “no influence”.
